Measurements as given in publication PMC6522510 (Nature Communications, 2019).
Where “and” joins values, the source holds several entries; their conditions need not be identical. Equal entries are not always repeated. Where two headings read alike, the source gives them in different places.

Tests used:
[1] = test system: U937; assay: Secondary dose-response HTS, Cell Titer Glo; assay type: cell-based, human; conditions: Homo sapiens
[2] = test system: MV4-11; design: species or system AML cell lines (8); Primary HTS, single concentration about 10 uM, Cell Titer Glo viability; log10 luminescence, per cent inhibition relative to cycloheximide control; conditions: 72 h, 10 µM, inhibitor
[3] = test system: CMS; assay: Secondary dose-response HTS, Cell Titer Glo; assay type: cell-based, human; conditions: Homo sapiens, HTS, read-out: average effective concentration, CMS
[4] = test system: U937; design: species or system AML cell lines (8); Primary HTS, single concentration about 10 uM, Cell Titer Glo viability; log10 luminescence, per cent inhibition relative to cycloheximide control; conditions: 72 h, 10 µM, inhibitor
[5] = test system: ML2; assay: Secondary dose-response HTS, Cell Titer Glo; assay type: cell-based, human; conditions: Homo sapiens
[6] = test system: CHRF288-11; design: species or system AML cell lines (8); Primary HTS, single concentration about 10 uM, Cell Titer Glo viability; log10 luminescence, per cent inhibition relative to cycloheximide control; conditions: 72 h, 10 µM, inhibitor
[7] = test system: MV4-11; assay: cells; design: species or system AML cell lines (8); conditions: Homo sapiens, MV4-11, 72 h, read-out: MV4-11
[8] = test system: M07e; assay: Secondary dose-response HTS, Cell Titer Glo; assay type: cell-based, human; conditions: Homo sapiens, M-07e, read-out: average effective concentration, M07e
[9] = test system: CMS; design: species or system AML cell lines (8); Primary HTS, single concentration about 10 uM, Cell Titer Glo viability; log10 luminescence, per cent inhibition relative to cycloheximide control; conditions: 72 h, 10 µM, inhibitor
[10] = test system: MOLM-13; assay: cells; design: species or system AML cell lines (8); Secondary HTS, 10-point dose-response in triplicate, Cell Titer Glo viability, four-parameter fit EC50; conditions: Homo sapiens, read-out: MOLM-13
[11] = test system: CHRF288-11; assay: Secondary dose-response HTS, Cell Titer Glo; assay type: cell-based, human; conditions: Homo sapiens, HTS, read-out: average effective concentration, CHRF288-11
[12] = test system: M07e; design: species or system AML cell lines (8); Primary HTS, single concentration about 10 uM, Cell Titer Glo viability; log10 luminescence, per cent inhibition relative to cycloheximide control; conditions: 72 h, 10 µM, inhibitor
[13] = test system: MOLM-13; assay: Secondary dose-response HTS, Cell Titer Glo; assay type: cell-based, human; conditions: for EC50: Homo sapiens, read-out: average effective concentration, MOLM-13
[14] = test system: CMK; design: species or system AML cell lines (8); Primary HTS, single concentration about 10 uM, Cell Titer Glo viability; log10 luminescence, per cent inhibition relative to cycloheximide control; conditions: 72 h, 10 µM, inhibitor
[15] = test system: CMK; assay: Secondary dose-response HTS, Cell Titer Glo; assay type: cell-based, human; conditions: CMK; for EC50: Homo sapiens, read-out: average effective concentration, CMK
[16] = test system: MV4-11; assay: Secondary dose-response HTS, Cell Titer Glo; assay type: cell-based, human; conditions: for EC50: Homo sapiens, read-out: average effective concentration, MV4-11
[17] = test system: ML-2; design: species or system AML cell lines (8); Primary HTS, single concentration about 10 uM, Cell Titer Glo viability; log10 luminescence, per cent inhibition relative to cycloheximide control
[18] = test system: MOLM-13; design: species or system AML cell lines (8); Primary HTS, single concentration about 10 uM, Cell Titer Glo viability; log10 luminescence, per cent inhibition relative to cycloheximide control; conditions: 72 h, 10 µM, inhibitor
[19] = test system: CMK; assay: cells; design: species or system AML cell lines (8); conditions: Homo sapiens, 72 h, read-out: CMK
[20] = test system: CMK; assay: cells; design: species or system AML cell lines (8); Secondary HTS, 10-point dose-response in triplicate, Cell Titer Glo viability, four-parameter fit EC50; conditions: Homo sapiens, CMK, 72 h, read-out: CMK
[21] = test system: ML-2; assay: cells; design: species or system AML cell lines (8); Secondary HTS, 10-point dose-response in triplicate, Cell Titer Glo viability, four-parameter fit EC50; conditions: Homo sapiens, ML-2, 72 h, read-out: ML-2
[22] = test system: CHRF288-11; assay: cells; design: species or system AML cell lines (8); Secondary HTS, 10-point dose-response in triplicate, Cell Titer Glo viability, four-parameter fit EC50; conditions: 72 h, read-out: CHRF288-11
[23] = test system: U937; assay: cells; design: species or system AML cell lines (8); Secondary HTS, 10-point dose-response in triplicate, Cell Titer Glo viability, four-parameter fit EC50; conditions: Homo sapiens, read-out: U937
[24] = test system: MOLM-13; assay: cells; design: species or system AML cell lines (8); Secondary HTS, 10-point dose-response in triplicate, Cell Titer Glo viability, four-parameter fit EC50; conditions: Homo sapiens, MOLM-13, 72 h, read-out: MOLM-13
[25] = test system: MV4-11; assay: cells; design: species or system AML cell lines (8); Secondary HTS, 10-point dose-response in triplicate, Cell Titer Glo viability, four-parameter fit EC50; conditions: Homo sapiens, MV4-11, 72 h, read-out: MV4-11
[26] = test system: CMS; assay: cells; design: species or system AML cell lines (8); conditions: 72 h, read-out: CMS
[27] = U-937, secondary high-throughput screen, U937, read-out: average effective concentration, U937
[28] = secondary high-throughput screen, CMS
[29] = secondary high-throughput screen, ML-2, read-out: average effective concentration, ML-2
[30] = secondary high-throughput screen, […]
[31] = secondary high-throughput screen, CHRF288-11
[32] = secondary high-throughput screen, MOLM-13
[33] = secondary high-throughput screen
[34] = secondary high-throughput screen, MV4-11
[35] = secondary high-throughput screen, M07e

CN1C(=O)[C@]23CC4=CC=C[C@H](O)[C@H]4N2C(=O)[C@@]1(CO)SS3 [GLIOTOXIN]
EC50 [1, 27]: 12 nM | MV4-11 %inh [2]: 84.27% and 75% | EC50 [3, 28]: 26 nM | U937 %inh [4]: 86.1% and 87.37% | EC50 [5, 29]: 25 nM | CHRF288-11 %inh [6]: 141.2% and 155.7% | EC50 [7]: > 10000 nM | EC50 [8, 30]: 130 nM | CMS %inh [9]: 108.9% and 102.6% | EC50 ([10]; 72 h cell viability): > 10000 nM | EC50 [11, 31]: 24 nM | M07e %inh [12]: 143.7% and 136.2% | average effective concentration, MOLM-13 [13, 32]: Inactive | CMK %inh [14]: 129.2% and 125% | EC50 [15, 33]: 16 nM | average effective concentration, MV4-11 [16, 34]: Inactive | ML-2 %inh ([17]; 72 h, 10 µM, inhibitor): 66.31% | ML-2 %inh ([17]; 72 h, 10 µM; inhibitor): 62.11% | MOLM-13 %inh [18]: 95.14% and 103.3%

COC(=O)[C@]1(C)CC[C@]2(C)CC[C@]3(C)C4=CC=C5C(=CC(=O)C(O)=C5C)[C@]4(C)CC[C@@]3(C)[C@@H]2C1 [[…]]
EC50 [7]: > 10000 nM | EC50 ([10]; MOLM-13, 72 h): > 10000 nM

CCC(=O)CCCCC[C@@H]1NC(=O)[C@H]2CCCCN2C(=O)[C@H]([C@@H](C)CC)NC(=O)[C@H](Cc2cn(OC)c3ccccc23)NC1=O [APICIDIN]
EC50 [1, 27]: 250 nM | EC50 [19]: > 10000 nM | EC50 [3, 28]: 220 nM | EC50 [5, 29]: 180 nM | EC50 [7]: > 10000 nM | EC50 [8, 30]: 140 nM | EC50 [11, 31]: 410 nM | EC50 [13, 32]: 130 nM | average effective concentration, CMK [15, 33]: Inactive | average effective concentration, MV4-11 [16, 34]: Inactive

CCn1c(C(=O)N(C2CC2)C2CC2)cc2c3c(ncn3C)c(Nc3cc(C)n(C)n3)nc21 [BMS-911543]
EC50 [20]: > 10000 nM | EC50 [3, 28]: 5000 nM | EC50 [21]: > 10000 nM | EC50 [22]: > 10000 nM | EC50 [8, 35]: 8700 nM | EC50 ([23]; U-937, 72 h): > 10000 nM | EC50 [24]: > 10000 nM | EC50 [25]: > 10000 nM

CC(C)Oc1ccc(C(=O)N[C@H](CNC(=O)CN(C)C)Cc2ccc(-c3cn4cccc([C@H](C)O)c4n3)cc2)cc1Cl [GSK-923295]
EC50 [20]: > 10000 nM | EC50 [1, 27]: 1 nM | EC50 [3]: 11 nM | EC50 [21]: 7.7 nM | EC50 [22]: > 10000 nM | EC50 [8, 35]: 140 nM | EC50 [24]: > 10000 nM | EC50 [25]: > 10000 nM

CC1=C(O)C(=O)C=C2C1=CC=C1[C@@]2(C)CC[C@@]2(C)[C@@H]3C[C@](C)(C(=O)O)CC[C@]3(C)CC[C@]12C [CELASTROL]
EC50 [1, 27]: 79 nM | EC50 [3, 28]: 64 nM | EC50 [5, 29]: 67 nM | EC50 [7]: > 10000 nM | EC50 [8, 30]: 940 nM | EC50 ([10]; 72 h cell viability): > 10000 nM | EC50 [11, 31]: 75 nM | average effective concentration, MOLM-13 [13, 32]: Inactive | EC50 [15, 33]: 69 nM | average effective concentration, MV4-11 [16, 34]: Inactive

C=C1C(=O)O[C@@H]2C[C@@H](C)[C@@H]3C=CC(=O)[C@@]3(C)[C@@H](O)[C@H]12 [HELENALIN]
EC50 ([1]; U-937, read-out: average effective concentration, U937): 170 nM | EC50 [3]: 210 nM | EC50 ([5]; ML-2, read-out: average effective concentration, ML-2): 130 nM | EC50 [7]: > 10000 nM | EC50 [8]: 340 nM | EC50 ([10]; 72 h cell viability): > 10000 nM | EC50 [11]: 170 nM | average effective concentration, MOLM-13 [13]: Inactive | EC50 [15]: 190 nM | average effective concentration, MV4-11 [16]: Inactive

O=c1cc(N2CCOCC2)oc2c(-c3ccccc3)cccc12 [LY-294002]
EC50 [20]: > 10000 nM | EC50 [3, 28]: > 10000 nM | EC50 [21]: > 10000 nM | EC50 [22]: > 10000 nM | EC50 [8, 35]: > 10000 nM | EC50 ([23]; U-937, 72 h): > 10000 nM | EC50 [24]: > 10000 nM | EC50 [25]: > 10000 nM

CN1C(=O)[C@@]23C[C@]4([C@]56C[C@@]78SS[C@@](CO)(C(=O)N7[C@H]5Nc5ccccc56)N(C)C8=O)c5ccccc5N[C@@H]4N2C(=O)[C@]1(CO)SS3 [CHAETOCIN]
EC50 [19]: > 10000 nM | EC50 [3, 28]: 10 nM | EC50 [5, 29]: 26 nM | EC50 [8, 30]: 12 nM | EC50 ([23]; U-937, 72 h cell viability): 7.7 nM | EC50 [11, 31]: 12 nM | EC50 [13, 32]: 62 nM | average effective concentration, CMK [15, 33]: Inactive | EC50 [16, 34]: 29 nM

C[C@]12O[C@H](C[C@]1(O)CO)n1c3ccccc3c3c4c(c5c6ccccc6n2c5c31)CNC4=O [LESTAURTINIB]
EC50 [1, 27]: 41 nM | EC50 [3, 28]: 7.55 nM | EC50 [5, 29]: 320 nM | EC50 [8, 35]: 1 nM | EC50 ([10]; 72 h cell viability): > 10000 nM | EC50 [11, 31]: 110 nM | EC50 [15, 33]: 3.3 nM | EC50 [16, 34]: 3200 nM

Nc1nc(Cl)nc2c1ncn2[C@H]1C[C@H](O)[C@@H](CO)O1 [CLADRIBINE]
EC50 [1, 27]: 87 nM | EC50 [5, 29]: 190 nM | EC50 [8, 35]: 14 nM | EC50 [26]: > 10000 nM | EC50 [11, 31]: 170 nM | EC50 [13, 32]: 35 nM | EC50 [15, 33]: 30 nM | EC50 [16, 34]: 24 nM
